{"source": "ChEMBL document CHEMBL1141398", "about": "“Metastin (KiSS-1) mimetics identified from peptide structure-activity relationship-derived pharmacophores and directed small molecule database screening” (J Med Chem, 2007)", "target": "KiSS-1 receptor (Homo sapiens, UniProt Q969F8)", "sequence (Q969F8 whole entry)": "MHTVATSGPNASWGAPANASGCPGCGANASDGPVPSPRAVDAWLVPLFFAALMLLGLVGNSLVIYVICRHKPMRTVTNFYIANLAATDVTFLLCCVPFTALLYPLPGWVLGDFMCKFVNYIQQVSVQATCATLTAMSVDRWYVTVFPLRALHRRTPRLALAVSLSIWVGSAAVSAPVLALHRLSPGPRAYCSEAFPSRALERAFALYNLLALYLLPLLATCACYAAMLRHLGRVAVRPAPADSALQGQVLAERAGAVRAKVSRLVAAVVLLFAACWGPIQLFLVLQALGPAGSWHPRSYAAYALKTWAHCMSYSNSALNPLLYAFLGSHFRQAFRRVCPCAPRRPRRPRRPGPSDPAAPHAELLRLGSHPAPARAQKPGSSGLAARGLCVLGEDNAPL", "assay": "Activity at metastin receptor expressed in HEK293 cells by measuring calcium release at 100 uM", "format": "functional, cell-based", "note": "Active and inactive are the calls of the source. No cut-off for these calls is given here."}
{"smiles": "CC(C)(C)CC(C)(C)c1ccc(OCCOCC[N+](C)(C)Cc2ccccc2)cc1", "note": "[BENZETHONIUM CHLORIDE]", "values": [{"measurement": "Activity", "result": "Active"}]}
